Measurements published in article PMC9780108, “An intrinsically disordered antimicrobial peptide dendrimer from stereorandomized virtual screening” (Cell Reports. Physical Science, 2022).
Values after ≈ are worked out from the molar mass of the structure shown. Positions of bridges follow the written chain, without caps; N, C: chain ends. Non-standard residues stand in square brackets, D forms with d. Residues, ends and D or L forms follow the SMILES beside them. Groups on a side chain read outwards from the residue. Chains are numbered I, II in the order given. *: point of attachment. X4 = CC(C)C[C@@H](NC(=O)CCCCCN)C(=O)NCCCC[C@@H](NC(=O)[C@@H](CC(C)C)NC(=O)CCCCCN)C(=O)*; X3 = CC(C)C[C@H](NC(=O)CCCCCN)C(=O)NCCCC[C@H](NC(=O)[C@H](CC(C)C)NC(=O)CCCCCN)C(=O)*; Ahx = NCCCCCC(=O)O

Legend:
[1] = system: HEK293 cell line; type: cell-based; details: 48 h
Description: HEK 293 cell line were cultured and maintained in DMEM (Dulbeccos modified Eagle
medium, Sigma Aldrich) supplemented with 10% FBS (Sigma Aldrich) and 1%
penicillin/streptomycin. Cells were incubated in a humidified incubator at 37°C in the presence
HEK 293 cell were seeded into 96 well plates at the density of 2 × 10^3 cells/well and incubated
in DMEM containing 10% FBS for 10-14 hours at 37°C in the presence of 5% CO2. The next
day, stock solution of compounds were prepared at concentration of 2 mg/mL in DMEM
containing 10% FBS. 1/2 or 1/3 serial dilution of the peptide dendrimers from 2 mg/mL or 200
µg/mL were performed in DMEM containing 10% FBS. The medium was removed from cell
culture and replaced with the compounds at different concentration after washing with PBS.
The cells were incubated in DMEM containing 10% FBS at 37°C in the presence of 5% CO 2.
Negative control was untreated cell culture without compounds and blank control was wells
without cell but only medium. After 48 hours, a final concentration of 10% AlamarBlue®
(Thermo Fisher Scientific, Reinach, CH) was added to each well . The cells were incubated for
3-5 hours at 37°C with 5% CO 2. The fluorescence was then measured on a Tecan Infinite
M1000 Pro plate reader at λex = 560 nm and λem = 590 nm. The value was normalized
according to the untreated cells.

[2] = system: P. aeruginosa PAO1; details: for MIC at pH 5.0, P. aeruginosa PAO1: PAO1, pH 5; for MIC at pH 7.4, P. aeruginosa PAO1: PAO1, pH 7.4; for MIC at pH 8.0, P. aeruginosa PAO1: PAO1, pH 8
[3] = system: A. baumannii ATCC 19606; details: for MIC at pH 5.0, A. baumannii ATCC 19606: ATCC 19606, pH 5; for MIC at pH 7.4, A. baumannii ATCC 19606: ATCC 19606, pH 7.4; for MIC at pH 8.0, A. baumannii ATCC 19606: ATCC 19606, pH 8
[4] = system: E. coli W3110; details: for MIC at pH 5.0, E. coli W3110: W3110, pH 5; for MIC at pH 7.4, E. coli W3110: W3110, pH 7.4; for MIC at pH 8.0, E. coli W3110: W3110, pH 8
[5] = system: K. pneumoniae NCTC 418; details: for MIC at pH 5.0, K. pneumoniae NCTC 418: NCTC 418, pH 5; for MIC at pH 7.4, K. pneumoniae NCTC 418: NCTC 418, pH 7.4; for MIC at pH 8.0, K. pneumoniae NCTC 418: NCTC 418, pH 8
[6] = system: S aureus COL (methicillin-resistant Staphylococcus aureus); details: for MIC at pH 5.0, S aureus COL: COL (methicillin-resistant, pH 5); for MIC at pH 7.4, S aureus COL: COL (methicillin-resistant, pH 7.4); for MIC at pH 8.0, S aureus COL: COL (methicillin-resistant, pH 8)

SMILES	IC50 HEK293 [1] [µg/mL]	MIC at pH 5.0, P. aeruginosa PAO1 [2]	MIC at pH 7.4, P. aeruginosa PAO1 [2]	MIC at pH 8.0, P. aeruginosa PAO1 [2]	MIC at pH 5.0, A. baumannii ATCC 19606 [3]	MIC at pH 7.4, A. baumannii ATCC 19606 [3]	MIC at pH 8.0, A. baumannii ATCC 19606 [3]	MIC at pH 5.0, E. coli W3110 [4]	MIC at pH 7.4, E. coli W3110 [4]	MIC at pH 8.0, E. coli W3110 [4]	MIC at pH 5.0, K. pneumoniae NCTC 418 [5]	MIC at pH 7.4, K. pneumoniae NCTC 418 [5]	MIC at pH 8.0, K. pneumoniae NCTC 418 [5]	MIC at pH 5.0, S aureus COL [6] [μg/mL]	MIC at pH 7.4, S aureus COL [6] [μg/mL]	MIC at pH 8.0, S aureus COL [6] [μg/mL]
CC(C)C[C@@H](NC(=O)CCCCCN)C(=O)NCCCC[C@@H](NC(=O)[C@@H](CC(C)C)NC(=O)CCCCCN)C(=O)N[C@H](CC(C)C)C(=O)NCCCC[C@@H](NC(=O)[C@@H](CC(C)C)NC(=O)[C@@H](CCCCNC(=O)[C@@H](CC(C)C)NC(=O)CCCCCN)NC(=O)[C@@H](CC(C)C)NC(=O)CCCCCN)C(=O)N[C@H](CCCCN)C(=O)N[C@H](CC(C)C)C(=O)N[C@H](CC(C)C)C(=O)NCCCC[C@@H](NC(=O)[C@@H](CC(C)C)NC(=O)[C@@H](CC(C)C)NC(=O)[C@@H](CCCCN)NC(=O)[C@@H](CCCCNC(=O)[C@@H](CC(C)C)NC(=O)[C@@H](CCCCNC(=O)[C@@H](CC(C)C)NC(=O)CCCCCN)NC(=O)[C@@H](CC(C)C)NC(=O)CCCCCN)NC(=O)[C@@H](CC(C)C)NC(=O)[C@@H](CCCCNC(=O)[C@@H](CC(C)C)NC(=O)CCCCCN)NC(=O)[C@@H](CC(C)C)NC(=O)CCCCCN)C(=O)N[C@H](CC(C)C)C(=O)N[C@H](CCCCN)C(=O)N[C@H](CCCCN)C(N)=O [D-aX22] (I: H-[Ahx][dL][dK]([dL-Ahx])[dL][dK]([dL-X4])[dK][dL][dL][dK][dL][dK][dK]-NH2 / II: H-[Ahx][dL][dK]([dL-Ahx])[dL][dK]([dL-X4])[dK][dL][dL]; amide I:9-II:C)	17 ± 2 (≈ 3.99 µM)	32 μg/mL	8 μg/mL	16 μg/mL	4/4/4 μg/mL	4/4/4 μg/mL	4/4/4 μg/mL	4 μg/mL	8 μg/mL	4 μg/mL	64 μg/mL	16 μg/mL	16 μg/mL	> 64	16	4
CC(C)C[C@H](NC(=O)[C@H](CC(C)C)NC(=O)[C@H](CCCCN)NC(=O)[C@H](CCCCNC(=O)[C@H](CC(C)C)NC(=O)[C@H](CC(C)C)NC(=O)[C@H](CCCCNC(=O)[C@H](CC(C)C)NC(=O)[C@H](CCCCN)NC(=O)[C@H](CCCCNC(=O)[C@H](CC(C)C)NC(=O)[C@@H](N)CCCCN)NC(=O)[C@H](CC(C)C)NC(=O)[C@@H](N)CCCCN)NC(=O)[C@H](CC(C)C)NC(=O)[C@H](CCCCN)NC(=O)[C@H](CCCCNC(=O)[C@H](CC(C)C)NC(=O)[C@@H](N)CCCCN)NC(=O)[C@H](CC(C)C)NC(=O)[C@@H](N)CCCCN)NC(=O)[C@H](CC(C)C)NC(=O)[C@H](CC(C)C)NC(=O)[C@H](CCCCNC(=O)[C@H](CC(C)C)NC(=O)[C@H](CCCCN)NC(=O)[C@H](CCCCNC(=O)[C@H](CC(C)C)NC(=O)[C@@H](N)CCCCN)NC(=O)[C@H](CC(C)C)NC(=O)[C@@H](N)CCCCN)NC(=O)[C@H](CC(C)C)NC(=O)[C@H](CCCCN)NC(=O)[C@H](CCCCNC(=O)[C@H](CC(C)C)NC(=O)[C@@H](N)CCCCN)NC(=O)[C@H](CC(C)C)NC(=O)[C@@H](N)CCCCN)C(N)=O [L-T25, reference compound] (HELM PEPTIDE1{K.L.K.K.L.K.L.L.K.K.L.L.[am]}|PEPTIDE2{K.L}|PEPTIDE3{K.L.K.K.L.K.L.L}|PEPTIDE4{K.L}|PEPTIDE5{K.L.K.K.L}|PEPTIDE6{K.L}|PEPTIDE7{K.L.K.K.L}|PEPTIDE8{K.L}$PEPTIDE1,PEPTIDE2,3:R3-2:R2|PEPTIDE3,PEPTIDE4,3:R3-2:R2|PEPTIDE5,PEPTIDE6,3:R3-2:R2|PEPTIDE7,PEPTIDE8,3:R3-2:R2|PEPTIDE1,PEPTIDE7,6:R3-5:R2|PEPTIDE1,PEPTIDE3,9:R3-8:R2|PEPTIDE3,PEPTIDE5,6:R3-5:R2$$$V2.0)	92 ± 3 (≈ 19.9 µM)	32 μg/mL	8 μg/mL	8 μg/mL	16 μg/mL	4 μg/mL	4 μg/mL	32 μg/mL	8 μg/mL	8 μg/mL	> 64 μg/mL	32 μg/mL	16 μg/mL	> 64	> 64	32
CC(C)C[C@H](NC(=O)[C@H](CC(C)C)NC(=O)[C@H](CC(C)C)NC(=O)[C@H](CCCCNC(=O)[C@H](CC(C)C)NC(=O)[C@H](CC(C)C)NC(=O)[C@H](CCCCNC(=O)[C@H](CCCCN)NC(=O)[C@H](CC(C)C)NC(=O)[C@H](CCCCNC(=O)[C@H](CC(C)C)NC(=O)[C@@H](N)CCCCN)NC(=O)[C@H](CC(C)C)NC(=O)[C@@H](N)CCCCN)NC(=O)[C@H](CCCCN)NC(=O)[C@H](CC(C)C)NC(=O)[C@H](CCCCNC(=O)[C@H](CC(C)C)NC(=O)[C@@H](N)CCCCN)NC(=O)[C@H](CC(C)C)NC(=O)[C@@H](N)CCCCN)NC(=O)[C@H](CC(C)C)NC(=O)[C@H](CC(C)C)NC(=O)[C@H](CCCCNC(=O)[C@H](CCCCN)NC(=O)[C@H](CC(C)C)NC(=O)[C@H](CCCCNC(=O)[C@H](CC(C)C)NC(=O)[C@@H](N)CCCCN)NC(=O)[C@H](CC(C)C)NC(=O)[C@@H](N)CCCCN)NC(=O)[C@H](CCCCN)NC(=O)[C@H](CC(C)C)NC(=O)[C@H](CCCCNC(=O)[C@H](CC(C)C)NC(=O)[C@@H](N)CCCCN)NC(=O)[C@H](CC(C)C)NC(=O)[C@@H](N)CCCCN)C(N)=O [L-X18] (HELM PEPTIDE1{K.L.K.L.K.K.L.L.K.L.L.L.[am]}|PEPTIDE2{K.L}|PEPTIDE3{K.L.K.L.K.K.L.L}|PEPTIDE4{K.L}|PEPTIDE5{K.L.K.L.K}|PEPTIDE6{K.L}|PEPTIDE7{K.L.K.L.K}|PEPTIDE8{K.L}$PEPTIDE1,PEPTIDE2,3:R3-2:R2|PEPTIDE3,PEPTIDE4,3:R3-2:R2|PEPTIDE5,PEPTIDE6,3:R3-2:R2|PEPTIDE7,PEPTIDE8,3:R3-2:R2|PEPTIDE1,PEPTIDE7,6:R3-5:R2|PEPTIDE1,PEPTIDE3,9:R3-8:R2|PEPTIDE3,PEPTIDE5,6:R3-5:R2$$$V2.0)	52 ± 4 (≈ 11.3 µM)	16 μg/mL	32 μg/mL	16 μg/mL	16 μg/mL	32 μg/mL	16 μg/mL	16/16/16 μg/mL	16/16/16 μg/mL	16/16/16 μg/mL	> 64 μg/mL	> 64 μg/mL	32 μg/mL	> 64	> 64	16
CC(C)C[C@H](NC(=O)[C@H](CC(C)C)NC(=O)[C@H](CC(C)C)NC(=O)[C@H](CCCCNC(=O)[C@H](CC(C)C)NC(=O)[C@H](CC(C)C)NC(=O)[C@H](CCCCNC(=O)[C@H](CCCCN)NC(=O)[C@H](CC(C)C)NC(=O)[C@H](CCCCNC(=O)[C@H](CC(C)C)NC(=O)CCCCCN)NC(=O)[C@H](CC(C)C)NC(=O)CCCCCN)NC(=O)[C@H](CCCCN)NC(=O)[C@H](CC(C)C)NC(=O)[C@H](CCCCNC(=O)[C@H](CC(C)C)NC(=O)CCCCCN)NC(=O)[C@H](CC(C)C)NC(=O)CCCCCN)NC(=O)[C@H](CC(C)C)NC(=O)[C@H](CC(C)C)NC(=O)[C@H](CCCCNC(=O)[C@H](CCCCN)NC(=O)[C@H](CC(C)C)NC(=O)[C@H](CCCCNC(=O)[C@H](CC(C)C)NC(=O)CCCCCN)NC(=O)[C@H](CC(C)C)NC(=O)CCCCCN)NC(=O)[C@H](CCCCN)NC(=O)[C@H](CC(C)C)NC(=O)[C@H](CCCCNC(=O)[C@H](CC(C)C)NC(=O)CCCCCN)NC(=O)[C@H](CC(C)C)NC(=O)CCCCCN)C(N)=O [L-aX18] (I: H-[Ahx]LK([Leu-Ahx])LKK([Lys-Leu-X3])LLKLLL-NH2 / II: H-[Ahx]LK([Leu-Ahx])LKK([Lys-Leu-X3])LL; amide I:9-II:C)	14 ± 0.6 (≈ 3.12 µM)	64/>64/64 μg/mL	64/>64/64 μg/mL	64/>64/64 μg/mL	32 μg/mL	64 μg/mL	32 μg/mL	32 μg/mL	> 64 μg/mL	32 μg/mL	>64/>64/>64 μg/mL	>64/>64/>64 μg/mL	>64/>64/>64 μg/mL	> 64	> 64	32
